{"source": "patent US10905770B2", "about": "“Topical delivery of therapeutic agents using cell-penetrating peptides for the treatment of age-related macular degeneration and other eye diseases” (priority 2017, dated 2021)", "key": {"[1]": {"tested_on": "esterified cholesterol in the Bruch's membrane", "assay": "Filipin staining of esterified cholesterol in Bruch's membrane, macaque study", "assay_type": "in vivo, Macaca fascicularis", "conditions": "eyes injected with L-4F vs placebo-injected eyes; 6 monthly intravitreal injections", "experimental": "(§1) The macaque study was conducted according to accepted guidelines. […] One eye per animal received 6 monthly injections of the same escalating dosages of L-4F or scrambled L-4F (total of 625 μg) in a 50 μL volume. The second eye per animal was not injected and was just observed.\n(§2) Clinical laboratory tests including serology, hemograms and liver enzymes were conducted, and ophthalmic examinations were also performed, including fundus photographs, optical coherence tomography (OCT), intraocular pressure testing and blood sampling. After 7 months, all animals were sacrificed and eyes were immediately prepared for histology. […]\nFor staining with filipin, specimens were washed once with deionized water for 5 min and then treated with 70% ethanol for 45 min. […] The specimens were then washed sequentially with PBS and deionized water, mounted with a mounting solution (Mowiol®, Carl Roth GmbH, Karlsruhe, Germany), covered with a glass cover slip, and examined using an inverted fluorescence microscope (DMI 6000 from Leica Microsystems, Wetzlar, Germany). Filipin fluorescence was observed using a UV filter set (λex/λem=350 nm/455 nm). […] Semiquantitative analysis of fluorescence intensity of filipin at three separate regions of the BrM was done on three different slides from the same eye (a total of 9 different regions from each eye)."}, "[2]": {"tested_on": "membrane attack complex (MAC, C5b-9)", "assay": "Immunohistochemistry of membrane attack complex, macaque study", "assay_type": "in vivo, Macaca fascicularis", "conditions": "eyes injected with L-4F vs eyes injected with the scrambled peptide; fluorescence intensity", "experimental": "as §1, §2\n(§3) Assays for immunohistochemistry of the membrane attack complex (MAC, C5b-9) and complement factor D (CFD) were performed identically except for employment of monoclonal antibodies specific for each complement component. […] Fluorescence microscopy was conducted using an inverted fluorescence microscope (DMI 6000 from Leica Microsystems, Wetzlar, Germany) and a filter set for λex/λem=470 nm/525 nm. For the semiquantitative analysis of fluorescence intensity of C5b-9, 3-5 different regions in one slide were analyzed for 3 different slides from each eye (a total of 9-15 different regions from each eye). For the semiquantitative analysis of fluorescence intensity of complement factor D, 3 distinct regions for each eye were evaluated."}, "[3]": {"tested_on": "geriatric macaques with naturally occurring age-related maculopathy", "assay": "Macaque study: fellow non-injected eye, tolerability and blood hsCRP", "assay_type": "in vivo", "experimental": "as §1\nClinical laboratory tests including serology, hemograms and liver enzymes were conducted, and ophthalmic examinations were also performed, including fundus photographs, optical coherence tomography (OCT), intraocular pressure testing and blood sampling. After 7 months, all animals were sacrificed and eyes were immediately prepared for histology. Histochemistry was performed with oil red O for neutral lipids and filipin for esterified cholesterol. Immunohistochemistry was performed against complement factor D (CFD) and the membrane attack complex (MAC, C5b-9), both being markers of activation of the alternative complement pathway.\nCirculating hsCRP, which is mainly produced in the liver, is a non-specific marker for systemic inflammation."}, "[4]": {"tested_on": "geriatric macaques with naturally occurring age-related maculopathy", "assay": "Bruch's membrane thickness by electron microscopy, macaque study", "assay_type": "in vivo, Macaca fascicularis", "experimental": "as §1\nLipid deposition in the Bruch's membrane contributes to thickening of the BrM. Bruch's membrane thickness was measured at the temporal outer macula of enucleated eyes examined by electron microscopy post-mortem."}, "[5]": {"tested_on": "complement factor D (CFD)", "assay": "Immunohistochemistry of complement factor D, macaque study", "assay_type": "in vivo, Macaca fascicularis", "conditions": "eyes injected with L-4F vs eyes injected with the scrambled peptide; fluorescence intensity", "experimental": "as §1, §2, §3"}, "[6]": {"tested_on": "neutral lipids in and on the Bruch's membrane", "assay": "Oil red O staining of neutral lipids in Bruch's membrane, macaque study", "assay_type": "in vivo, Macaca fascicularis", "conditions": "eyes injected with L-4F vs eyes injected with placebo; 6 monthly intravitreal injections (total 625 μg); after 6 months", "experimental": "as §1\nas §2, with “histology. Histochemistry was performed with oil red O for neutral lipids and filipin for esterified cholesterol.” for “histology.”\nFor staining with oil red O (ORO), specimens were treated with a 0.3% oil red O (Sigma-Aldrich Biochemie GmbH, Hamburg, Germany) solution (in 99% isopropanol) for 30 min at room temperature (RT), followed by immersion in a 60% isopropanol solution for 12 min. […] Image analysis was performed by grading the intensity of ORO staining (red color) of the Bruch's membrane (BrM) with scores ranging from 0 to 4, according to a qualitative evaluation assessed in four different regions in two separate slices from each eye (a total of 8 different regions from each eye). […]"}, "[7]": {"experimental": "(§4) Lutein was dissolved in DMSO (10 mg/mL) and titrated into water. […] As a proxy for topical delivery into the eye by eye drop, 50 μL of lutein plus hexa-arginine (SEQ ID NO: 258) or lutein alone was applied to one side of the outer shell membrane of a chicken egg, and the material that crossed the membrane in water was collected after 2 minutes. The level of lutein was measured by absorbance. The experiment was conducted three times (n=3).\nas §4, with “Zeaxanthin” for “Lutein”, “DMF” for “DMSO”, “zeaxanthin” for “lutein”\nas §4, with “into water, zeaxanthin was dissolved in DMF (10 mg/mL) and titrated into water, and then lutein and zeaxanthin were mixed in a 1:1 ratio.” for “into water.”, “lutein and zeaxanthin” for “lutein”, “NO: 258),” for “NO: 258)”, “lutein and zeaxanthin without CPP,” for “lutein alone”\nas §4, with “Dexamethasone” for “Lutein”, “DMSO” for “DMSO (10 mg/mL)”, “dexamethasone” for “lutein”, “presence” for “level”, “detected” for “measured”, “electrospray mass spectroscopy.” for “absorbance. The experiment was conducted three times (n=3).”\nTacrolimus was dissolved in DMSO and titrated into water. […] As a proxy for topical delivery into the eye by eye drop, 50 μL of tacrolimus plus hexa-arginine (SEQ ID NO: 258) or tacrolimus alone was applied to one side of the outer shell membrane of a chicken egg, and the material that crossed the membrane in water was collected after 2 minutes. The presence of tacrolimus was detected by electrospray mass spectroscopy.\nas §4, with “Adalimumab” for “Lutein”, “fluorescently tagged” for “dissolved in DMSO (10 mg/mL)”, “purified.” for “titrated into water.”, “adalimumab” for “lutein”, “PBS” for “water”, “fluorescence.” for “absorbance.”\nAs a proxy for topical delivery into the eye by eye drop, 50 μL of glucose plus hexa-arginine (SEQ ID NO: 258) or glucose alone was applied to one side of the outer shell membrane of a chicken egg, and the material that crossed the membrane in water was collected after 2 minutes. The presence of glucose was detected by electrospray mass spectroscopy.\n(§5) As a proxy for topical delivery into the eye by eye drop, 50 μL of BDNF plus hexa-arginine (SEQ ID NO: 258) or BDNF alone was applied to one side of the outer shell membrane of a chicken egg, and the material that crossed the membrane in PBS was collected after 2 minutes. The level of BDNF was measured by ELISA. The experiment was conducted three times (n=3).\nas §5, with “GDNF” for “BDNF”, “ELISA.” for “ELISA. The experiment was conducted three times (n=3).”"}, "geographic atrophy (GA)": {"tested_on": "geographic atrophy (GA)", "conditions": "vs placebo, cited from earlier work"}, "rat eye in vivo": {"tested_on": "rat eye in vivo", "assay": "CPP-assisted delivery into rat eye in vivo", "experimental": "An eye drop of 50 μL of bevacizumab plus hexa-arginine (SEQ ID NO: 258) was applied topically to the front of one of the eyes of a live rat, and then the rat was sacrificed 60 minutes after topical application."}}, "note": "Entries after “also recorded” stand apart in the source; their conditions may differ.", "data": [{"molecule": "Ac-DWFKAFYDKVAEKFKEAF-NH2 [L-4F]", "values": [{"measurement": "reduction of esterified cholesterol in the BrM (filipin fluorescence)", "setting": "[1]", "result": "about 68%"}, {"measurement": "decreased level of MAC (C5b-9) in the BrM and the choriocapillaris", "setting": "[2]", "result": "about 58%"}, {"measurement": "blood level of high-sensitivity C-reactive protein (hsCRP)", "setting": "[3]; after 6 monthly intravitreal injections vs day prior to first injection", "result": "did not increase"}, {"measurement": "tolerability (adverse events, side effects)", "setting": "[3]; macaques intravitreally injected with L-4F", "result": "well tolerated"}, {"measurement": "reduction of BrM thickness", "setting": "[4]; eyes injected with L-4F vs eyes injected with placebo", "result": "about 24%"}, {"measurement": "BrM thickness", "setting": "[4]; eyes injected with L-4F, temporal outer macula, electron microscopy post-mortem, ±SE", "result": 1.31, "unit": "μm"}, {"measurement": "decreased level of complement factor D", "setting": "[5]", "result": "about 41%"}, {"measurement": "reduction of lipid deposits from the BrM (staining with oil red O)", "setting": "[6]", "result": "about 56%"}]}, {"molecule": "C=CC[C@@H]1/C=C(\\C)C[C@H](C)C[C@H](OC)[C@H]2O[C@@](O)(C(=O)C(=O)N3CCCC[C@H]3C(=O)O[C@H](/C(C)=C/[C@@H]3CC[C@@H](O)[C@H](OC)C3)[C@H](C)[C@@H](O)CC1=O)[C@H](C)C[C@@H]2OC", "note": "[tacrolimus, reference compound]", "values": [{"measurement": "crossing of the egg shell membrane (electrospray mass spectroscopy)", "setting": "[7]", "result": "did not cross"}]}, {"molecule": "lampalizumab: antigen-binding fragment (Fab) of a humanized monoclonal antibody targeting CFD", "values": [{"measurement": "reduction in the rate of GA enlargement, and hence the area of GA, in the injected eye", "setting": "geographic atrophy (GA); monthly intravitreal injections of 10 mg for 18 months, fundus autofluorescence", "result": "about 20%"}, {"measurement": "reduction in the GA growth rate, and hence the area of GA", "setting": "geographic atrophy (GA); subgroup positive for CFI mutations, monthly intravitreal 10 mg for 18 months", "result": "about 44%"}]}, {"molecule": "C[C@@H]1C[C@H]2[C@@H]3CCC4=CC(=O)C=C[C@]4(C)[C@@]3(F)[C@@H](O)C[C@]2(C)[C@@]1(O)C(=O)CO", "note": "[dexamethasone, reference compound]", "values": [{"measurement": "crossing of the egg shell membrane (electrospray mass spectroscopy)", "setting": "[7]", "result": "did not cross"}]}, {"molecule": "bevacizumab: anti-VEGF antibody", "values": [{"measurement": "delivery into the posterior segment (the vitreous and the retina) of the treated eye", "setting": "rat eye in vivo; 50 μL eye drop, bevacizumab 25 mg/mL plus hexa-arginine 5 mg/mL, 60 minutes, human IgG ELISA", "result": "entered; also recorded: delivered"}, {"measurement": "level in the bloodstream", "setting": "rat eye in vivo; 60 minutes after topical application", "result": "not detected"}, {"measurement": "level in the fellow untreated eye", "setting": "rat eye in vivo; 60 minutes after topical application to the other eye, human IgG ELISA", "result": "not detected"}]}, {"molecule": "adalimumab", "values": [{"measurement": "amount that crossed the membrane with hexa-arginine compared with without", "setting": "[7]", "result": "markedly greater"}, {"measurement": "fluorescence of material that crossed the egg shell membrane", "setting": "[7]", "result": "1359±3"}]}, {"molecule": "CC1=C[C@H](O)CC(C)(C)[C@H]1/C=C/C(C)=C/C=C/C(C)=C/C=C/C=C(C)/C=C/C=C(C)/C=C/C1=C(C)C[C@@H](O)CC1(C)C", "note": "[lutein]", "values": [{"measurement": "crossing of the egg shell membrane", "setting": "[7]", "result": "did not cross"}]}, {"molecule": "CC1=C(/C=C/C(C)=C/C=C/C(C)=C/C=C/C=C(C)/C=C/C=C(C)/C=C/C2=C(C)C[C@@H](O)CC2(C)C)C(C)(C)C[C@H](O)C1", "note": "[zeaxanthin]", "values": [{"measurement": "crossing of the egg shell membrane", "setting": "[7]", "result": "a very small amount"}]}, {"molecule": "GDNF: glial cell-derived neurotrophic factor (protein, UniProt P39905 78-211, looked up) Glial cell line-derived …: SPDKQMAVLPRRERNRQAAAANPENSRGKGRRGQRGKNRGCVLTAIHLNVTDLGLGYETKEELIFRYCSGSCDAAETTYDKILKNLSRNRRLVSDKVGQACCRPIAFDDDLSFLDDNLVYHILRKHSAKRCGCI", "values": [{"measurement": "crossing of the egg shell membrane", "setting": "[7]", "result": "did not cross"}]}, {"molecule": "BDNF: brain-derived neurotrophic factor (protein, UniProt P23560 19-247, looked up) Neurotrophic factor BDNF …: APMKEANIRGQGGLAYPGVRTHGTLESVNGPKAGSRGLTSLADTFEHVIEELLDEDQKVRPNEENNKDADLYTSRVMLSSQVPLEPPLLFLLEEYKNYLDAANMSMRVRRHSDPARRGELSVCDSISEWVTAADKKTAVDMSGGTVTVLEKVPVSKGQLKQYFYETKCNPMGYTKEGCRGIDKRHWNSQCRTTQSYVRALTMDSKKRIGWRFIRIDTSCVCTLTIKRGR", "values": [{"measurement": "crossing of the egg shell membrane", "setting": "[7]", "result": "did not cross"}]}]}
